Test systems include HOP-62 NSCLC; SF-268 CNS; OVCAR-3 ovarian; NCI/ADR-RES ovarian; HT29 colon; SN12C renal; SF-295 CNS; HOP-92 NSCLC; OVCAR-4 ovarian; NCI-H460 lung.
Assay in all cases: inhibition of tumour cell growth, NCI panel, 48 h

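Step 1: Grow cells in 96-well plates. Step 2: Expose to compound for 48 hours at 5 concentrations. Step 3: Interpolate endpoints linearly; if unreached, use highest concentration. The concentration for 50% growth inhibition is given as GI50. At the TGI there is no net growth.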

On to `O=[N+]([O-])C(/C=C(\Cl)[N+](=O)[O-])=C1Nc2ccccc2N1`, for which the TGI in the assay on HOP-62 NSCLC, in the assay with SF-268 CNS, in the assay with OVCAR-3 ovarian, in the assay with NCI/ADR-RES ovarian, in the assay on HT29 colon and in the assay with SN12C renal was greater than 100 µM throughout. Moreover, the TGI in the assay on SF-295 CNS was greater than 100 µM; with HOP-92 NSCLC it was 87 µM; with OVCAR-4 ovarian it was greater than 100 µM; with NCI-H460 lung, greater than 100 µM.

With `CCOC(=O)C(NC(=O)c1ccccc1)(Nc1ccc(S(=O)(=O)Nc2ncccn2)cc1)C(F)(F)F` (centres undefined), the TGI in the assay on HOP-62 NSCLC, with SF-268 CNS, in the assay with OVCAR-3 ovarian, in the assay with NCI/ADR-RES ovarian, with HT29 colon and in the assay on SN12C renal was greater than 100 µM in each case. Also, the TGI in the assay with SF-295 CNS, in the assay with HOP-92 NSCLC, in the assay with OVCAR-4 ovarian and in the assay on NCI-H460 lung was greater than 100 µM each time.

As for `CN(C)c1ccc(/C=C/c2ccc(S(N)(=O)=O)cc2)cc1`, the TGI in the assay with HOP-62 NSCLC was 36.6 µM; in the assay on SF-268 CNS it was greater than 100 µM; in the assay with OVCAR-3 ovarian it was 49.8 µM; with NCI/ADR-RES ovarian, 40 µM; in the assay on HT29 colon it was greater than 100 µM; in the assay with SN12C renal it was 51.1 µM. The TGI in the assay with SF-295 CNS is 46.8 µM; in the assay with HOP-92 NSCLC, 36 µM; in the assay on OVCAR-4 ovarian, 10.1 µM; in the assay with NCI-H460 lung, greater than 100 µM. The GI50 in the assay on SF-268 CNS is 7.16 µM; with HT29 colon, 30.8 µM; in the assay with HOP-92 NSCLC it was 16.6 µM; in the assay with OVCAR-4 ovarian it was 3.35 µM.

Turning to `Cc1ccc(C2(c3ccc(Cl)cc3)c3ccccc3C3=NCCN32)cc1` (centres undefined), the TGI in the assay on HOP-62 NSCLC came to 23.8 µM; with SF-268 CNS, 31.5 µM; with OVCAR-3 ovarian it was 24.9 µM; in the assay on NCI/ADR-RES ovarian, 24.9 µM; with HT29 colon it was 14.6 µM; in the assay with SN12C renal, 29.7 µM. The TGI with SF-295 CNS stood at 20.6 µM; with HOP-92 NSCLC it was 18.1 µM; in the assay on OVCAR-4 ovarian, 16.9 µM; in the assay on NCI-H460 lung, 20.7 µM.

Consider `S=C(N/N=C(\c1ccccc1)c1ccccn1)NC1CCCCC1`, for which the TGI in the assay on HOP-62 NSCLC was greater than 100 µM; with SF-268 CNS, greater than 100 µM; in the assay with OVCAR-3 ovarian, greater than 100 µM; with NCI/ADR-RES ovarian, 1.59 µM; in the assay on HT29 colon, greater than 100 µM; with SN12C renal, greater than 100 µM. In addition, the TGI in the assay with SF-295 CNS was greater than 80.1 µM; in the assay on HOP-92 NSCLC, greater than 100 µM; in the assay with OVCAR-4 ovarian, greater than 100 µM; in the assay on NCI-H460 lung it was greater than 100 µM.

Consider `Cc1[nH]c(=O)[nH]c(=O)c1/C=C/C(=O)O` (tested in a mixture with another compound), for which the TGI in the assay on HOP-62 NSCLC, in the assay with SF-268 CNS, in the assay on OVCAR-3 ovarian, with NCI/ADR-RES ovarian, with HT29 colon and in the assay on SN12C renal was greater than 625 µM throughout. Further, the TGI was greater than 625 µM in the assay on SF-295 CNS, 623 µM with HOP-92 NSCLC, greater than 625 µM with OVCAR-4 ovarian and greater than 625 µM with NCI-H460 lung.

Take `COc1cccc(C23CCCC(C2)NCC3Br)c1OC` (centres undefined): the TGI in the assay on HOP-62 NSCLC, with SF-268 CNS, in the assay on OVCAR-3 ovarian, with NCI/ADR-RES ovarian, in the assay with HT29 colon and in the assay on SN12C renal was greater than 100 µM each time. The TGI with SF-295 CNS, with HOP-92 NSCLC, in the assay with OVCAR-4 ovarian and with NCI-H460 lung was greater than 100 µM each time.

`COc1cc(-c2nc3ccc(N4CCN(C)CC4)cc3[nH]2)c(OC)c2[nH]c(COC(C)=O)nc12`: the TGI in the assay with HOP-62 NSCLC, with SF-268 CNS, in the assay with OVCAR-3 ovarian, in the assay with NCI/ADR-RES ovarian, with HT29 colon and in the assay with SN12C renal was greater than 100 µM in each case. Besides, the TGI in the assay on SF-295 CNS, with HOP-92 NSCLC, in the assay with OVCAR-4 ovarian and with NCI-H460 lung was greater than 100 µM in each case.

For `Cc1cccc(Br)[n+]1[O-]`, the TGI in the assay on HOP-62 NSCLC, with SF-268 CNS, in the assay with OVCAR-3 ovarian, in the assay on NCI/ADR-RES ovarian, in the assay on HT29 colon and in the assay with SN12C renal was greater than 100 µM each time. The TGI in the assay with SF-295 CNS, in the assay on HOP-92 NSCLC, with OVCAR-4 ovarian and in the assay on NCI-H460 lung was greater than 100 µM each time.

For `COc1ccccc1Cc1ccc(C2C=CC3(CC(=O)C=C3C)C(=O)C2)o1` (centres undefined), the TGI with HOP-62 NSCLC was 50.3 µM; with SF-268 CNS, 64.9 µM; in the assay with OVCAR-3 ovarian, 23.5 µM; in the assay on NCI/ADR-RES ovarian, greater than 100 µM; in the assay on HT29 colon, greater than 100 µM; in the assay on SN12C renal, 58.5 µM. Further, the TGI in the assay with SF-295 CNS was 65.9 µM; in the assay with HOP-92 NSCLC, 75.6 µM; in the assay on OVCAR-4 ovarian, greater than 100 µM; in the assay with NCI-H460 lung, greater than 100 µM.

With `O=C1C=CC2OC(c3ccccc3)C(O)C2O1` (centres undefined), the TGI was found to be 26 µM in the assay with HOP-62 NSCLC; 15.6 µM in the assay on SF-268 CNS; 10.7 µM in the assay on OVCAR-3 ovarian; 15.2 µM in the assay with NCI/ADR-RES ovarian; 35.2 µM with HT29 colon; 22.9 µM in the assay with SN12C renal. In addition, the TGI worked out at 19.6 µM in the assay on SF-295 CNS, 10.2 µM in the assay on HOP-92 NSCLC, 17.9 µM in the assay on OVCAR-4 ovarian and 16.2 µM in the assay on NCI-H460 lung.

In the case of `CCCCCCCCCCCC(=O)OC[C@H](C[As](=O)(O)O)OC(=O)CCCCCCCCCCC`, the TGI in the assay on HOP-62 NSCLC was 31.7 µM; in the assay on SF-268 CNS, greater than 42.5 µM; in the assay on OVCAR-3 ovarian, 19.3 µM; in the assay on NCI/ADR-RES ovarian it was 29.3 µM; in the assay with HT29 colon, 21.7 µM; in the assay on SN12C renal, 16.4 µM. In addition, the TGI in the assay on SF-295 CNS turned out to be 27 µM; in the assay on HOP-92 NSCLC it was 3.85 µM; in the assay with OVCAR-4 ovarian it was 37.7 µM; in the assay on NCI-H460 lung, 16.9 µM.

`CCCNC(=S)N/N=C(\C)c1ccc(S(=O)(=O)N(C)c2ccccc2)cc1`: the TGI is 29 µM with HOP-62 NSCLC; 41.8 µM in the assay with SF-268 CNS; greater than 100 µM in the assay on OVCAR-3 ovarian; greater than 100 µM in the assay on NCI/ADR-RES ovarian; greater than 100 µM in the assay on HT29 colon; greater than 100 µM in the assay with SN12C renal. The TGI with SF-295 CNS was 58 µM; with HOP-92 NSCLC it was greater than 100 µM; in the assay on OVCAR-4 ovarian, greater than 100 µM; with NCI-H460 lung, greater than 100 µM.

On to `O=C(CN(C(=O)OC12CC3CC(CC(C3)C1)C2)C(=O)OC12CC3CC(CC(C3)C1)C2)Oc1ccc([N+](=O)[O-])cc1`, for which the TGI in the assay on HOP-62 NSCLC, in the assay on SF-268 CNS, in the assay on OVCAR-3 ovarian, in the assay on NCI/ADR-RES ovarian, in the assay on HT29 colon and in the assay with SN12C renal was greater than 100 µM each time. Further, the TGI in the assay with SF-295 CNS, in the assay on HOP-92 NSCLC, in the assay on OVCAR-4 ovarian and in the assay on NCI-H460 lung was greater than 100 µM throughout.

With `COc1cc2c(c(OC)c1OC)C(=O)[C@@H]1[C@H]2N1C(=O)NCCCl`, the TGI in the assay on HOP-62 NSCLC, in the assay with SF-268 CNS, in the assay on OVCAR-3 ovarian, in the assay on NCI/ADR-RES ovarian, in the assay with HT29 colon and in the assay on SN12C renal was greater than 100 µM in each case. Also, the TGI in the assay with SF-295 CNS, in the assay with HOP-92 NSCLC, in the assay with OVCAR-4 ovarian and with NCI-H460 lung was greater than 100 µM throughout.

As for `CSC1(C)C(=O)Nc2c(OCc3ccccc3)cc([N+](=O)[O-])cc21` (centres undefined), the TGI was greater than 100 µM in the assay with HOP-62 NSCLC; greater than 100 µM in the assay on SF-268 CNS; greater than 100 µM in the assay with OVCAR-3 ovarian; greater than 100 µM with NCI/ADR-RES ovarian; greater than 100 µM in the assay on HT29 colon; 34.6 µM with SN12C renal. The TGI with SF-295 CNS, in the assay with HOP-92 NSCLC, in the assay on OVCAR-4 ovarian and in the assay with NCI-H460 lung was greater than 100 µM throughout.

On to `COc1ccc(/C=C/C(=O)/C=C/c2ccc(OC)cc2OC)c(OC)c1`, for which the TGI with HOP-62 NSCLC was 81.1 µM; in the assay on SF-268 CNS it was 33.7 µM; in the assay with OVCAR-3 ovarian it was 7.37 µM; in the assay with NCI/ADR-RES ovarian, 91.4 µM; with HT29 colon it was 12.7 µM; with SN12C renal it was 65.2 µM. Further, the TGI with SF-295 CNS is 72.5 µM; in the assay on HOP-92 NSCLC, 67.5 µM; in the assay on OVCAR-4 ovarian, 46.3 µM; with NCI-H460 lung it was 24 µM.

For `O=c1c2ccccc2[nH]n1Cc1ccccc1`, the TGI with HOP-62 NSCLC, with SF-268 CNS, with OVCAR-3 ovarian, in the assay on NCI/ADR-RES ovarian, in the assay on HT29 colon and with SN12C renal was greater than 100 µM in each case. Moreover, the TGI in the assay on SF-295 CNS, in the assay on HOP-92 NSCLC, in the assay on OVCAR-4 ovarian and with NCI-H460 lung was greater than 100 µM throughout.

Regarding `CCOC(=O)NN(C(=O)OCC)C(C(=O)C1=CCCCC1)N(NC(=O)OCC)C(=O)OCC`, the TGI with HOP-62 NSCLC, in the assay on SF-268 CNS, with OVCAR-3 ovarian, with NCI/ADR-RES ovarian, with HT29 colon and with SN12C renal was greater than 100 µM in each case. The TGI in the assay on SF-295 CNS, in the assay on HOP-92 NSCLC, in the assay on OVCAR-4 ovarian and in the assay with NCI-H460 lung was greater than 100 µM in each case.

Regarding `COc1cc(C)c(/C=C2/N=C(c3ccccc3)OC2=O)c([N+](=O)[O-])c1OC`, the TGI with HOP-62 NSCLC, with SF-268 CNS, with OVCAR-3 ovarian, in the assay on NCI/ADR-RES ovarian, in the assay with HT29 colon and in the assay on SN12C renal was greater than 100 µM in each case. Moreover, the TGI in the assay with SF-295 CNS, in the assay on HOP-92 NSCLC, in the assay with OVCAR-4 ovarian and in the assay with NCI-H460 lung was greater than 100 µM in each case.
